Values joined by “and” are separate entries in the source; they are usually repeats but may differ in a detail not shown here. Identical values can stand only once. Like-named read-outs stand apart in the source and are kept apart here.
Columns and labels:
[1] = test system: M. tuberculosis H37Rv; type: in vivo, BALB/c mice
[2] = test system: intestinal microbiome; assay: Gut microbiome, 16s rRNA gene-based metagenomics analysis of feces; type: in vivo, BALB/c mice
Method: Six-week-old BALB/c female mice were used for this study (6 mice for each group). Each drug was administered orally at 30 mg/kg once daily for 7 days. Stool was collected, and 16 rRNA gene-based metagenomics analysis was performed. Corn oil was used as the vehicle. The drug-free group received corn oil only. This animal experiment was conducted with the approval of the IACUC of the Soonchunhyang University (approval number: SCH21-0011). Microbiome analysis of collected feces was carried out as previously described with some modifications. Total DNA was extracted from the stool using the QIAamp DNA stool mini kit (Qiagen, Germany) after mechanical disruption using lysing matrix B tubes (MP Biomedicals, USA). V4 region of 16S RNA gene was amplified from extracted DNA with the following primers: forward primer ([…]) and reverse primer ([…]). PCR was performed using the Kappa HiFi hot start kit (KAPA Biosystems, USA) for 16s gene amplification and library preparation. A dsDNA HS assay kit and Qubit 4 fluorimeter (Invitrogen, USA) were used for DNA quantification. After each step, quality was checked using Agilent High Sensitivity DNA Kit and Agilent Bioanalyzer 2100 (Agilent Technologies, USA). Clean-up was performed using AMPure XP beads (Beckman Coulter, UK). The metagenomic library was prepared using a Nextera XT DNA Library Prep Kit (Illumina, USA) and loaded into an iSeq-100 reagent cartridge (Illumina, USA) together with a PhiX Control library (Illumina, USA). A 300-bp paired-end sequencing was performed on an iSeq-100 platform (Illumina, USA). Sequencing data were analyzed using the EzBioCloud server (Chunlab, Korea).

[3] = test system: M. tuberculosis H37Rv; assay: Luminescence-based microbial cell viability assay; parameters: species or system Mycobacterium tuberculosis; details: for RLU/50ul (replicates1-3), single values / RLU/ml (×100) / RLU/50ul (average): Fig 2C
[4] = test system: M. tuberculosis H37Rv; type: cell-based, Mycobacterium tuberculosis; details: H37Rv
[5] = 30 mg/kg oral once a day for 7 days, BALB/c mice, feces

NNC(=O)c1ccncc1 [INH, isoniazid, reference compound]
Efficacy in BALB/C mouse model of pulmonary tuberculosis, Average ([1]; Fig 4A, group dose 30, 6 mice): 4583 | reduction of bacterial load in lungs compared to drug-free group ([1]; mouse, in vivo): similar | granulomatous lesions in lung sections (HE staining) ([1]; mouse, in vivo, po): limited number of small granulomatous lesions | beta set-significance analysis, pair-wise comparison of gut microbiome [2, 5]: not significant | difference in phylum or class level taxa compared to drug-free group [2, 5]: did not significantly differ | phylogenetic diversity compared to drug-free control group [2, 5]: no significant change | RLU/50ul (replicates1-3), single values ([3]; drug conc. 0.19): 1310 RLU/50ul and 1170 RLU/50ul and 1890 RLU/50ul and 1990 RLU/50ul and 2130 RLU/50ul and 1740 RLU/50ul and 1790 RLU/50ul and 1620 RLU/50ul and 1290 RLU/50ul | RLU/ml (×100) ([3]; drug conc. 0.19): 331.8 RLU/ml (×100) | RLU/50ul (average) ([3]; drug conc. 0.19, average of each replicate set): 2003 RLU/50ul and 1717 RLU/50ul and 1257 RLU/50ul | RLU/50ul (replicates1-3), single values ([3]; drug conc. 0.39): 340 RLU/50ul and 310 RLU/50ul (2×) and 220 RLU/50ul and 250 RLU/50ul and 320 RLU/50ul (3×) and 360 RLU/50ul | RLU/ml (×100) ([3]; drug conc. 0.39): 61.1 RLU/ml (×100) | RLU/50ul (average) ([3]; drug conc. 0.39, average of each replicate set): 263 RLU/50ul and 317 RLU/50ul and 337 RLU/50ul | RLU/50ul (replicates1-3), single values ([3]; drug conc. 0.78): 120 RLU/50ul (3×) and 100 RLU/50ul and 130 RLU/50ul (2×) and 180 RLU/50ul and 150 RLU/50ul and 140 RLU/50ul | RLU/ml (×100) ([3]; drug conc. 0.78): 26.4 RLU/ml (×100) | RLU/50ul (average) ([3]; drug conc. 0.78, average of each replicate set): 143 RLU/50ul and 137 RLU/50ul and 117 RLU/50ul | concentration with significant antitubercular effect ([3]; luminescence-based assay): 0.78 µg/mL and 0.39 µg/mL | CFU/ml (average) ([4]; Fig 3A, drug conc. 12.5): 2420 CFU/ml | Intracellular M. tuberculosis, % (Drug Free = 100.0) ([4]; Fig 3A, drug conc. 12.5): 7.2% | CFU/ml (average) ([4]; Fig 3A, drug conc. 25): 203 CFU/ml | Intracellular M. tuberculosis, % (Drug Free = 100.0) ([4]; Fig 3A, drug conc. 25): 0.6% | CFU/ml (average) ([4]; Fig 3B, drug conc. 12.5): 2120 CFU/ml | Intracellular M. tuberculosis, % (Drug Free = 100.0) ([4]; Fig 3B, drug conc. 12.5): 6.3% | CFU/ml (average) ([4]; Fig 3B, drug conc. 25): 133 CFU/ml | Intracellular M. tuberculosis, % (Drug Free = 100.0) ([4]; Fig 3B, drug conc. 25): 0.4%

CO[C@H]1/C=C/O[C@@]2(C)Oc3c(C)c(O)c4c(O)c(c(/C=N/N5CCN(C)CC5)c(O)c4c3C2=O)NC(=O)/C(C)=C\C=C\[C@H](C)[C@H](O)[C@@H](C)[C@@H](O)[C@@H](C)[C@H](OC(C)=O)[C@@H]1C [RIF, rifampicin, reference compound]
beta set-significance analysis, pair-wise comparison of gut microbiome ([2]; mouse, in vivo): significant | difference in phylum or class level taxa compared to drug-free group ([2]; mouse, in vivo): significant differences | phylogenetic diversity compared to drug-free control group ([2]; mouse, in vivo): significantly decreased

From PMC9154192 (PLoS Biology, 2022)
